Earlier results as cited in Sander's compilation of Henry's law constants (doi:10.1021/cr60306a003).

Assay: Henry solubility constant Hcp at 298.15 K (mol/(m3 Pa))
Details: reference: Wilhelm et al. (1977); cited value

Compound	Henry solubility constant Hcp
FC(F)Cl [chlorodifluoromethane]	0.00034
CF [fluoromethane]	0.00058
FN(F)N(F)F [dinitrogen tetrafluoride]	8.4e-06
CC(C)(C)C [dimethylpropane]	5.9e-06
[Ne] [neon]	4.4e-06
FC(F)(F)F [tetrafluoromethane]	2.1e-06
FC(F)=C(F)F [tetrafluoroethene]	1.6e-05
FC(F)F [trifluoromethane]	0.00013
O=O [oxygen]	1.3e-05
P [phosphorus trihydride]	8.1e-05
[Xe] [xenon]	4.2e-05
[N-]=[N+]=O [dinitrogen monoxide]	0.00024
FC(F)(F)C(F)(F)Cl [chloropentafluoroethane]	3.4e-06
CNC [dimethylamine]	0.3
FC(F)(F)Cl [chlorotrifluoromethane]	9.3e-06
[C-]#[O+] [carbon monoxide]	9.4e-06
[Rn] [radon]	9.2e-05
C=CCl [chloroethene]	0.00045
CC(C)C [2-methylpropane]	8e-06
CCCC [butane]	1.2e-05
FC(F)(Cl)Cl [dichlorodifluoromethane]	2.1e-05
[Ar] [argon]	1.4e-05
[He] [helium]	3.8e-06

Compound	Henry solubility constant Hcp
C=C [ethene]	4.7e-05
C#C [ethyne]	0.00041
C#CC=C [3-buten-1-yne]	0.00037
[Kr] [krypton]	2.5e-05
FS(F)(F)(F)(F)F [sulfur hexafluoride]	2.4e-06
CN [methanamine]	0.35
C#CCC [1-butyne]	0.00075
C=CC [propene]	7.3e-05
O=[O+][O-] [ozone]	0.00013
FCCl [chlorofluoromethane]	0.0015
FC(F)=C(F)C(F)(F)F [hexafluoropropene]	2.9e-06
FN(F)F [nitrogen trifluoride]	7.9e-06
C=CCC [1-butene]	0.00013
O=C=O [carbon dioxide]	0.00033
C=CC=C [1,3-butadiene]	0.00014
O=S=O [sulfur dioxide]	0.014
C1CC1 [cyclopropane]	0.00011
O=C=S [carbon oxide sulfide]	0.00021
[HH] [hydrogen]	7.7e-06
[O][Cl+][O-] [chlorine dioxide]	0.01
CBr [bromomethane]	0.0016
CCN [ethanamine]	0.35
C=C(C)C [2-methylpropene]	5.6e-05
